We go through 27 compounds from patent US20070078111A1, “LPA2 receptor agonist inhibitors of CFTR” (priority 2005, published 2007).

For one assay, the target named is LPA2 receptor (Homo sapiens, UniProt Q9HBW0). As to the kind of experiment: LPA2 receptor agonist activity (EC50, Emax). It is filed as cell-based. As to conditions: for LPA2 (Emax): value in parentheses.
The next assay relates to CFTR. Description: Iodide efflux measurements in Calu-3 cells. It is filed as cell-based, human. The conditions noted are these: for CFTR activity, peak iodide efflux in response to adenosine: adenosine as CFTR agonist, FIG. 2C.
Assay [1] relates to CTX-induced Cl- secretion. Type of assay: in vivo, C57BL/6 mice. The conditions noted are these: 6 hours.
Assay [2] relates to CFTR Cl- channel. Description: Short-circuit current (Isc) in polarized HT29-CL19A monolayers. It is filed as cell-based, human. As to conditions: HT29 cells; LPA (20:4) pretreatment 30 min; FIG. 2E. The procedure:
(§1) Calu-3 and HT29-CL19A polarized cell monolayers were grown to confluency on Costar Transwell permeable supports (filter area is 0.33 cm^2). Filters were mounted in an Ussing chamber, and short-circuit currents (Isc) mediated through CFTR Cl^− channel were carried out as described previously (31). Epithelia were bathed in Ringer's solution (mM) (serosal/basolateral: 140 NaCl^−, 5 KCl, 0.36 K2HPO4, 0.44 KH2PO4, 1.3 CaCl2, 0.5 MgCk2, 4.2 NaHCO3, 10 Hepes, 10 glucose, pH 7.2, [Cl^−]=149), and low Cl-Ringer's solution (mM) (luminal/apical: 133.3 Na-gluconate, 5 K-gluconate, 2.5 NaCl, 0.36 K2HPO4, 0.44 KH2PO4, 5.7 CaCl2, 0.5 MgCl2, 4.2 NaHCO3, 10 Hepes, 10 mannitol, pH 7.2, [Cl^−]=14.8) at 37° C., gassed with 95% O2 and 5%) […] CO2. LPA (20:4) was added into both the luminal (apical) side and serosal (basolateral) side of the cell monolayers for 30 min before adenosine (ADO) was added into the luminal/apical side. […]

Assay [3] concerns CFTR Cl- channel. Description: Short-circuit current (Isc) in polarized Calu-3 monolayers. As to conditions: Calu-3 cells; LPA pretreatment 30 min; FIG. 2F. It is filed as cell-based, human. How it is done: as §1
Assay [4] deals with CFTR Cl- channel. As to the kind of experiment: Short-circuit current (Isc) in isolated mouse intestine. As to conditions: isolated mouse intestine pretreated with LPA (20:4); dose-dependent; FIG. 2G, 2H. The procedure:
as §1

For assay [5], the system named is CTX-induced intestinal fluid secretion. Type of assay: in vivo, CD1 mice.

Chain of LPA2 receptor (Q9HBW0 whole entry): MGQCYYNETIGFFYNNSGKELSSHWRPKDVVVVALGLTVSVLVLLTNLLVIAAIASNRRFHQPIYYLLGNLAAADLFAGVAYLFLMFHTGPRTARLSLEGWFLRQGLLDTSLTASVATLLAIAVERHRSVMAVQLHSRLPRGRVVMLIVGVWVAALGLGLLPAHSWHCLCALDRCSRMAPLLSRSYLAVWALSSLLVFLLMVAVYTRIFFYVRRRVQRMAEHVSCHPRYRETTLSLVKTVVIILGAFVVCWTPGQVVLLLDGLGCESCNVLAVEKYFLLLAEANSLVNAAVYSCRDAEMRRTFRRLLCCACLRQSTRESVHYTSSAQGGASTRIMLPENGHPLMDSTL

In the case of `CCCC/C=C\CCCCCCCCOP(=O)(O)O` [Phosphoric acid monotetradec-9-enyl ester], on LPA2 receptor (Table 1), the midpoint of the response, the EC50, lay at 397 nM and the “LPA2 (Emax)” value turned out to be 58.

Take `CCCCCCCCCCCCCCOP(O)(O)=S` [Thiophosphoric acid O- tetradecyl ester]: the “binding to the LPA2 receptor and thereby inhibiting CFTR activation” value at LPA2 receptor is recorded as “particularly effective”. At LPA2 receptor (Table 1), the response was half-maximal at 2500 nM (EC50) and the “LPA2 (Emax)” value was 100.

Take `CCCCCCCC/C=C\CCCCCCCC(=O)OC[C@@H](O)COP(=O)(O)O` [LPA 18:1]: the “rank order of inhibition of peak iodide efflux in response to adenosine” value in the assay with CFTR (Calu-3 cells, […], FIG. 2D) is given as “LPA 20:4>LPA 18:2>LPA 18:1”.

As for `CCCCCCCC=CCCCCCCCC[C@@H]1OC[C@H](COP([O-])(O)=S)O1.[K+]` [(2R,4R) Mono potassium thiophosphoric acid O-(2-heptadec-9-enyl-(1,3)-dioxolan-4-ylmethyl) ester], on LPA2 receptor (Table 2), the response was half-maximal at 1090 nM (EC50) and the “LPA2 (Emax)” value worked out at 85.

For `CCCCCCCCOC[C@H](COP(O)(O)=S)OCCCCCCCC` [(R)-Thiophosphoric acid O-(2,3-bis-octyloxy-propyl) ester], on LPA2 receptor (Table 1), the EC50 (as a rule, the midpoint of the concentration-response curve) was 5720 nM and the “LPA2 (Emax)” value is reported as 27.

For the compound `CCCCCCCCCCOP(=O)(O)O` [Phosphoric acid monodecyl], at LPA2 receptor (Table 1), a half-maximal effect (EC50) was put at 1800 nM and the “LPA2 (Emax)” value stood at 82.

`CC/C=C\CCCCCCCCCCOP(=O)(O)O` [Phosphoric acid monotetradec-11-enyl ester]: on LPA2 receptor (Table 1), the EC50 is 4100 nM and the “LPA2 (Emax)” value is 75.

`C=CCCCCCCCCOP(=O)(O)O` [Phosphoric acid monodec-9-enyl ester]: at LPA2 receptor (Table 1), the EC50 was found to be 3800 nM and the “LPA2 (Emax)” value is 100.

On to `CCCCCCCCCCCCOP(O)(O)=S` [Thiophosphoric acid O- dodecyl ester], for which the “binding to the LPA2 receptor and thereby inhibiting CFTR activation” value at LPA2 receptor is “particularly effective”. In addition, on LPA2 receptor (Table 1), the EC50 amounted to 1000 nM and the “LPA2 (Emax)” value was 100.

Regarding `CCCCCCCC=CCCCCCCCCC1OCC(COP(O)(O)=S)O1.[K]` (stereo not shown) [Mono potassium thiophosphoric acid O-(2-heptadec-9-enyl-(1,3)-dioxolan-4-ylmethyl) ester], on LPA2 receptor (Table 2), the EC50 worked out at 1170 nM and the “LPA2 (Emax)” value stood at 87.

Regarding `CCCCCCCC=CCCCCCCCC[C@@H]1OC[C@@H](COP([O-])(O)=S)O1.[K+]` [(2R,4S) Mono potassium thiophosphoric acid O-(2-heptadec-9-enyl-(1,3)-dioxolan-4-ylmethyl) ester], at LPA2 receptor (Table 2), the EC50 amounted to 1540 nM and the “LPA2 (Emax)” value is recorded as 72.

On to `CCCCCCCC=CCCCCCCCC[C@H]1OC[C@H](COP([O-])(O)=S)O1.[K+]` [(2S,4R) Mono potassium thiophosphoric acid O-(2-heptadec-9-enyl-(1,3)-dioxolan-4-ylmethyl) ester], for which, at LPA2 receptor (Table 2), the EC50 was found to be 1300 nM and the “LPA2 (Emax)” value is reported as 77.

phosphatidic acid [PA]: the “CFTR activity, peak iodide efflux in response to adenosine” value in the assay with CFTR (Calu-3 cells) is reported as “did not show any significant effect”.

Take `CCCCCCCCCCOP(O)(O)=S` [Thiophosphoric acid O- decyl ester]: on LPA2 receptor (Table 1), the EC50 worked out at 4570 nM and the “LPA2 (Emax)” value worked out at 100.

Consider `CCCCCCCC/C=C\CCCCCCCCOP(O)(O)=S` [FAP 18:1d9, fatty alcohol thiophosphate 18:1d9], for which, in assay [1], the intestinal fluid accumulation result was “significantly reduced” and the “ratio of intestinal weight before to after luminal fluid removal” value is “statistically significant reduction”.

On to `CCCCCCCC=CCCCCCCCC[C@H]1OC[C@@H](COP([O-])(O)=S)O1.[K+]` [(2S,4S) Mono potassium thiophosphoric acid O-(2-heptadec-9-enyl-(1,3)-dioxolan-4-ylmethyl) ester], for which, at LPA2 receptor (Table 2), a half-maximal response (EC50) required 1320 nM and the “LPA2 (Emax)” value amounted to 87.

Take `CC=CCC=CCC=CCCCCCCCCC1OCC(COP(=O)(O)O)O1.[K]` (stereo not shown) [Mono potassium phosphoric acid O-(2-heptadec-9,12,15-trienyl-(1,3)-dioxolan-4-ylmethyl) ester]: on LPA2 receptor (Table 2), the EC50 stood at 1710 nM and the “LPA2 (Emax)” value amounted to 51.

For the compound lysophosphatidic acid [LPA], the “effect of LPA alone on CFTR channel function (iodide efflux)” value in the assay with CFTR (Calu-3 cells, LPA alone, no cpt-cAMP) is listed as “had no effect”. Moreover, the “CFTR activity, peak iodide efflux in response to adenosine” value in the assay on CFTR (Calu-3 cells) is reported as “dose-dependent inhibition”. The “response of Calu-3 cells to cpt-cAMP stimulation (iodide efflux)” value in the assay with CFTR (LPA pretreatment, FIG. 2A: LPA 18:1 (20 μM), cpt-cAMP 200 μM) was “reduced the response”. Also, the “CFTR-dependent Cl- currents (Isc) in response to adenosine” value in the assay with CFTR Cl- channel [2] and with CFTR Cl- channel [3] was “significantly inhibited” throughout. Besides, the “Isc in response to cpt-cAMP stimulation” value with CFTR Cl- channel [4] is reported as “inhibited”. For the same compound, the “CTX-elicited CFTR-dependent intestinal fluid secretion (ileal loop weight)” value in assay [5] (6 h) was “significantly reducing fluid accumulation to the level of PBS control loops”. Moreover, the “fluid accumulation in toxin-treated intestinal loops” value in assay [5] (mouse, in vivo) is listed as “efficiently reduced the fluid accumulation”. In addition, the “ratio of intestinal weight before to after luminal fluid removal” value in assay [1] is “statistically significant reduction”.

On to `CCCCCCCC(=O)OC[C@H](COP(O)(O)=S)OC(=O)CCCCCCC` [(R)-Octanoic acid 1-octanoyloxymethyl-2-thiophosphonooxy-ethyl ester], for which the “LPA2 (Emax)” value at LPA2 receptor (Table 1) was determined as 58.

As for `CCCCCCCC=CCCCCCCCC[C@@H]1OC[C@H](COP(=O)([O-])O)O1.[K+]` [(2R,4R) Mono potassium phosphoric acid O-(2-heptadec-9-enyl-(1,3)-dioxolan-4-ylmethyl) ester], on LPA2 receptor (Table 2), the EC50 was 1710 nM and the “LPA2 (Emax)” value came out at 42.

In the case of `CC/C=C\CCCCCCCCOP(=O)(O)O` [Phosphoric acid monododec-9-enyl ester], on LPA2 receptor (Table 1), the EC50 is 717 nM and the “LPA2 (Emax)” value is recorded as 78.

Turning to `CCCCCCCCCCCCOP(=O)(O)O` [Phosphoric acid monododecyl ester], at LPA2 receptor (Table 1), the 50% effective concentration (EC50) turned out to be 3100 nM and the “LPA2 (Emax)” value is 50.

Regarding `CC/C=C\CCCCCCCCOP(O)(O)=S` [drawing 10, Thiophosphoric acid O-dodec-9-enyl ester], the “binding to the LPA2 receptor and thereby inhibiting CFTR activation” value on LPA2 receptor is recorded as “particularly effective”. For the same compound, on LPA2 receptor (Table 1), a half-maximal response (EC50) required 677 nM and the “LPA2 (Emax)” value is 100.

Turning to pertussis toxin [PTX], the “reversal of LPA-dependent inhibition of CFTR function (iodide efflux)” value in the assay with CFTR (Calu-3 cells pretreated with PTX 100 or 200 ng/ml for 24 h) is listed as “reversed LPA-dependent inhibition of CFTR function in a dose-dependent fashion”.

On to `CCCC/C=C\CCCCCCCCOP(O)(O)=S` [Thiophosphoric acid O-tetradec-9-enyl ester], for which, at LPA2 receptor, the “binding to the LPA2 receptor and thereby inhibiting CFTR activation” value is “particularly effective”. For the same compound, at LPA2 receptor (Table 1), the midpoint of the response, the EC50, lay at 480 nM and the “LPA2 (Emax)” value stood at 150.

With `CCCCCCCC(=O)OC[C@@H](COP(O)(O)=S)OC(=O)CCCCCCC` [(S)-Octanoic acid 1-octanoyloxymethyl-2-thiophosphonooxy-ethyl ester], the “LPA2 (Emax)” value at LPA2 receptor (Table 1) is reported as 17.

As for `CCCCCCCC/C=C\CCCCCCCCOP(O)(O)=S` [drawing 12, Thiophosphoric acid O-octadec-9-enyl ester], the “binding to the LPA2 receptor and thereby inhibiting CFTR activation” value at LPA2 receptor was “particularly effective”. At LPA2 receptor (Table 1), the EC50 was determined as 244 nM and the “LPA2 (Emax)” value was 175.
